What was measured:
GCN2 [1] = biological target: T1, GCN2 (Mus musculus, UniProt Q9QZ05); test: GCN2 inhibition cell-based assay (P-GCN2 Western blot in Neuro 2a cells); conditions: amino acid deprived media (DMEM lacking L-cysteine and methionine), 3 hours
T1 construct: endogenous in cells; host or cells: Neuro 2a (N2a)

GCN2 [2] = biological target: GCN2 (Homo sapiens, UniProt Q9P2K8); test: GCN2 activation induced by arginine starvation (Western blot); assay type: cell-based; design: endogenous in cells; host or cells: HT29 and HCT116; conditions: HT29 and HCT116 colorectal cancer cell lines, 24 hours
Sequence of GCN2 (Homo sapiens, UniProt Q9P2K8) (Q9P2K8 whole entry): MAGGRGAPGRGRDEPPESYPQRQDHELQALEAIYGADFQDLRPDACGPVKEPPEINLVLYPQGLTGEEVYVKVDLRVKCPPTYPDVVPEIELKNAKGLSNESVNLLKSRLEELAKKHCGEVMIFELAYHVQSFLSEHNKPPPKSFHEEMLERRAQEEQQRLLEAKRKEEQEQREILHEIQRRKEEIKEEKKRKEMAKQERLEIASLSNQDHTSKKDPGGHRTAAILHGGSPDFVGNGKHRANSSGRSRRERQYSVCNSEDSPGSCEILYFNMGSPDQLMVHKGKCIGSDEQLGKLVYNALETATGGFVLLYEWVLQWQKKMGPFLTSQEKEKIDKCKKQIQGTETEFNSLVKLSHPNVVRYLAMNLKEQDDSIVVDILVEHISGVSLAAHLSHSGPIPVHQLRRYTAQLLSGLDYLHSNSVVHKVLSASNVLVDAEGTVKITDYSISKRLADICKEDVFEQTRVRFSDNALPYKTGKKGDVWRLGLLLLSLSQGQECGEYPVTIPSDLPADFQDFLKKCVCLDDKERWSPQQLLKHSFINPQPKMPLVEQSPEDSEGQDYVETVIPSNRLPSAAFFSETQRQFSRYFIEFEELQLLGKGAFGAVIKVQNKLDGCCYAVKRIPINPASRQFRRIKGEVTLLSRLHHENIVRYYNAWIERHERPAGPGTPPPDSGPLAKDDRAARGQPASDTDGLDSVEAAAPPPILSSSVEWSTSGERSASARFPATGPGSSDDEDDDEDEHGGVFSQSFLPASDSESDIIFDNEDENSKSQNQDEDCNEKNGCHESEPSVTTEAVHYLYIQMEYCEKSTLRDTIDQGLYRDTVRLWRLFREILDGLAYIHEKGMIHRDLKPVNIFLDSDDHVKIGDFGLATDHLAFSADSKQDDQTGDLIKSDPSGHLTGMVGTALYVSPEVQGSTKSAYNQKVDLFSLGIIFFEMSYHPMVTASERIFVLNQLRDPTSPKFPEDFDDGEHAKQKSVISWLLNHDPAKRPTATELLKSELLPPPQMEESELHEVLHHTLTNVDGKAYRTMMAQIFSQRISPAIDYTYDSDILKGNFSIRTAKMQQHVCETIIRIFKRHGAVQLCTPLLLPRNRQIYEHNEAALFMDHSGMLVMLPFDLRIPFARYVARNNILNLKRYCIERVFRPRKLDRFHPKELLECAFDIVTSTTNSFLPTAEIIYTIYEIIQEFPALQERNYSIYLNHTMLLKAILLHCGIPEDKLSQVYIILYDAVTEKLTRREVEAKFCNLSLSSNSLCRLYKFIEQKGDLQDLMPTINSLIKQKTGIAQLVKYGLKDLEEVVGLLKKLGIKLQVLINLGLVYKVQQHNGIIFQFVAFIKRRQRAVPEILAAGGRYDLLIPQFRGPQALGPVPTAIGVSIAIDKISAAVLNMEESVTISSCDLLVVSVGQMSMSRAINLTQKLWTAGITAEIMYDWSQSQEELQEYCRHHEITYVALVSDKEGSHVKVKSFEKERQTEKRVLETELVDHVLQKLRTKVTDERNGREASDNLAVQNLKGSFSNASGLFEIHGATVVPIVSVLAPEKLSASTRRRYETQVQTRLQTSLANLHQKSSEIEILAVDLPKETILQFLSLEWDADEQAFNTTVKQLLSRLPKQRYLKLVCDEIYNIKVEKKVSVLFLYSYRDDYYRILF
Description: Colorectal cancer cell lines HT29 and HCT116 were seeded at a concentration of 100×10^3 cells per well in 6 well plates, in SILAC DMEM Flex media supplemented with 10% fetal bovine serum, 1 g/L glucose, 2 mM glutamine, 800 μM lysine, and various concentrations of arginine in the absence or presence of Compound 1 and Compound 2 GCN2 inhibitors. Cells were cultured for 24 hours.
Following 24 hours of culture, expression of phosphorylated GCN2 (P-GCN2) and alpha-actinin loading control was assessed by Western blot. Briefly, cells were washed with cold PBS and dissolved in cell lysis buffer containing 1% Triton, supplemented with protease inhibitors and phosphatase inhibitors. All lysates were freshly prepared and normalized using a BCA protein assay before addition of LDS sample buffer and denaturation by boiling the samples for 5 minutes at 95° C. Proteins were separated on 4-12% Bis-Tris protein gels in MOPS SDS buffer and electrophoresis was performed (e.g., Novex NuPAGE® Gel Electrophoresis Systems; Invitrogen). Transfer of the protein samples was performed (e.g., using the Mini Trans-Blot Cell® system; Bio-Rad) with 0.45 μM pore Nitrocellulose/Filter paper sandwiches and transfer buffer at 350 mA for 90 minutes at 4° C. Membranes were blocked for 1 hour with 4% BSA in TBS-Tween at room temperature and incubated with 1:1,000 dilutions of anti-GCN2, phospho-GCN2, α-actinin1, and/or p21 (Waf/Cip1) antibodies overnight at 4° C. Afterwards, membranes were washed 3 times with TBS-Tween and incubated with HRP-conjugated secondary antibodies at 1:20,000 dilution for 1 hour at room temperature.

HT29 cells = test: Proliferation and apoptosis of colorectal cancer cells (live-cell imaging); assay type: cell-based; conditions: 10 μM, 64 μM arginine, up to 96 hours, vs untreated cells; for rate of apoptotic cell death: YO-PRO-1 uptake
Description: Proliferation and apoptosis of HT29 cells was determined in the presence of Compound 1 and Compound 2. Briefly, cells were seeded in 96-well flat bottom plates at 4,000 cells per well in 100 μL SILAC DMEM Flex media without phenol red, supplemented with 10% fetal bovine serum (FBS), 1 g/L glucose, 2 mM glutamine, 220 μM lysine, containing a physiological concentration of arginine (64 μM). After 24 hours, cells were treated with 10 μM vehicle control (Control; 0.1% DMSO), 10 μM Compound 1, or 10 μM Compound 2, together with 100 nM of fluorescent apoptosis stain (YO-PRO™-1 Iodide; Thermo Fisher) to detect apoptotic cells. Cells were placed in a live-cell imaging and analysis platform (IncuCyte ZOOM®; Essenbio) set up in a humidified incubator at 37° C. and the plates were scanned every 4 hours for up 96 hours, at 10× magnification to determine cell confluence and cell death. Experiments were performed in duplicate with 3 images collected per well and analyzed using live-cell imaging and analysis software (e.g., IncuCyte ZOOM® 2018A software; Essenbio).

CHOP (DDIT3) reporter = test: GCN2-induction of CHOP and apoptosis in 3T3 fibroblasts with CHOP (DDIT3) reporter construct; assay type: cell-based, murine; conditions: for GCN2 activation / GCN2-induced CHOP activation: murine 3T3 CHOP (mCherry) reporter fibroblasts, increasing concentrations, in the presence of halofuginone or histidinol; for apoptosis induced by halofuginone / late-stage apoptosis induced by histidinol: murine 3T3 WT cells; for apoptosis induced by halofuginone: co-treatment with halofuginone; for late-stage apoptosis induced by histidinol: co-treatment with histidinol
Description: The CHOP construct comprised the […] (UTR) of mouse DDIT3 mRNA fused to a sequence encoding the fluorescent protein mCherry.
Cells were seeded at 5,000 cells per well in flat bottom 96-well plates in 100 μL DMEM low glucose media without phenol red, and supplemented with 10% FBS and 2 mM glutamine. After 24 hours, the exemplary compounds, and either tunicamycin, halofuginone, or histidinol, were added together with 100 nM of fluorescent apoptosis stain (YO-PRO™-1 Iodide; Thermo Fisher) to detect apoptotic cells. Cells were placed in a live-cell imaging and analysis platform (IncuCyte ZOOM®; Essenbio) set up in a humidified incubator at 37° C. and the plates were scanned every 4 hours for up 120 hours, at 10× magnification, to determine cell confluence and cell death. Experiments were performed in duplicate with 3 images collected per well, and analyzed using live-cell imaging and analysis software (IncuCyte ZOOM® 2018A software; Essenbio).

T1 sequence (Q9QZ05 whole entry): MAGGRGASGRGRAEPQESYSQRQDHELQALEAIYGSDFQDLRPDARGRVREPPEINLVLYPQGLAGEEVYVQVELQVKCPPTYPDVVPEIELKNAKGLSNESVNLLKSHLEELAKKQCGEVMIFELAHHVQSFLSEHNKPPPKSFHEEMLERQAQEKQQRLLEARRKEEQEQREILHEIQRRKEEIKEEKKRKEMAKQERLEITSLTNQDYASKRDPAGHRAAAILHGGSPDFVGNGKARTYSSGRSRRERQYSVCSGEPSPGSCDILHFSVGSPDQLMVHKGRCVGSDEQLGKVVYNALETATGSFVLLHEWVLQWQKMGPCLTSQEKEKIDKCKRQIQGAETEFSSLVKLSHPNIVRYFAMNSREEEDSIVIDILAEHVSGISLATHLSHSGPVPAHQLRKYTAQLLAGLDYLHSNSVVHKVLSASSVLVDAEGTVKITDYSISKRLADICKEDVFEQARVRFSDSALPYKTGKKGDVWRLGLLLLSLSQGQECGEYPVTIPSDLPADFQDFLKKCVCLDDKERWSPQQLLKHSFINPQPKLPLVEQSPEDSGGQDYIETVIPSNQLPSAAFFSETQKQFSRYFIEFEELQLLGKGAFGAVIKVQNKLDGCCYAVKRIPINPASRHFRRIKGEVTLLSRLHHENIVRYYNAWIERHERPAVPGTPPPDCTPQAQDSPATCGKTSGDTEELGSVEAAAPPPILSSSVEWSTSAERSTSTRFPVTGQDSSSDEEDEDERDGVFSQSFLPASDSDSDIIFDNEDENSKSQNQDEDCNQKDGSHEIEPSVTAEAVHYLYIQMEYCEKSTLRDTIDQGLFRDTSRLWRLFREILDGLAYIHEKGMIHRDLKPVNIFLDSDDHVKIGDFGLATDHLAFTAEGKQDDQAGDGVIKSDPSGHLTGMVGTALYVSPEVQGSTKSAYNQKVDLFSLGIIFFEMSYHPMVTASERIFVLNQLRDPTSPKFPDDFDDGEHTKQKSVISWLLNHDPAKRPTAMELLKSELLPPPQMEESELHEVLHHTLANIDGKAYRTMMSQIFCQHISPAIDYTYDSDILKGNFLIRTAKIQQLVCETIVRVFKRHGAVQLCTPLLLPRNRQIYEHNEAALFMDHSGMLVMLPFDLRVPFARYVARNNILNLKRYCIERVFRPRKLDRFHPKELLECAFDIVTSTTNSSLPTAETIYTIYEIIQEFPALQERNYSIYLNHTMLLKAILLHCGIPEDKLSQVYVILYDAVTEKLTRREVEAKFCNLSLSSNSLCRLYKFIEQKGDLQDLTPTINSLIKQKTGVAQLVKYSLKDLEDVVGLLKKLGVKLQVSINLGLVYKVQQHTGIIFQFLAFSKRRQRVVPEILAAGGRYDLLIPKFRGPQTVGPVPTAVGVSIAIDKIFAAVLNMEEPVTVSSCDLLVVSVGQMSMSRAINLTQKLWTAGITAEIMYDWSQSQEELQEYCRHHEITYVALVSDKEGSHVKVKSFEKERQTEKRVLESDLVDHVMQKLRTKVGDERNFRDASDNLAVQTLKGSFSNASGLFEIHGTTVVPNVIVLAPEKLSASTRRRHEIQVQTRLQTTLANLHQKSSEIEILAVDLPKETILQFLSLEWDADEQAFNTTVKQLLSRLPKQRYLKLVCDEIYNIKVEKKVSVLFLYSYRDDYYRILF

Row | Compound | IC50 (GCN2 [1]) | activation of GCN2 (P-GCN2 expression) upon arginine depletion (GCN2 [2]) | p21 expression (GCN2 [2]) | rate of apoptotic cell death (HT29 cells) | cell density / confluence (HT29 cells) | GCN2 activation / GCN2-induced CHOP activation (CHOP (DDIT3) reporter) | apoptosis induced by halofuginone (CHOP (DDIT3) reporter) | late-stage apoptosis induced by histidinol (CHOP (DDIT3) reporter)
1 | Nc1ncc2cc(-c3c(F)ccc(NS(=O)(=O)c4cc(Cl)ccc4Cl)c3F)ccc2n1 [Compound 2] | < 10 nM | prevented the activation of GCN2 upon arginine depletion | p21 expression is induced | increased rate of apoptotic cell death | grew less dense | reduced GCN2 activation | effectively inhibited apoptosis | increased late-stage apoptosis
2 | COc1ncc(Cl)cc1S(=O)(=O)Nc1ccc(F)c(-c2ccc3nc(N)ncc3c2)c1F [Compound 1] | < 10 nM | prevented the activation of GCN2 upon arginine depletion | p21 expression is induced | increased rate of apoptotic cell death | grew less dense | reduced GCN2 activation | effectively inhibited apoptosis | increased late-stage apoptosis

From US12630529B2, “GCN2 modulator compounds” (ALESTA THERAPEUTICS BV, priority 2020, dated 2026)
